# Reference: patent publication US9458104B2 (priority 2012, dated 2016)
# Experiments:
# RORγ = target: T1, RORγ (UniProt P51449); format: cell-based; conditions: 293T cells, 16 h; for pIC50 (FF): firefly (FF) luciferase; for pIC50 (REN): renilla normalised (RENnorm) luciferase
# T1 construct: hRORg-LBD|aa259-518|NP_005051.2; hRORgt|aa1-497|NP_001001523 (RORg, t isoform, 497aa); mRORg-LBD|aa264-516|NP_035411
# T1 sequence (P51449 1-518): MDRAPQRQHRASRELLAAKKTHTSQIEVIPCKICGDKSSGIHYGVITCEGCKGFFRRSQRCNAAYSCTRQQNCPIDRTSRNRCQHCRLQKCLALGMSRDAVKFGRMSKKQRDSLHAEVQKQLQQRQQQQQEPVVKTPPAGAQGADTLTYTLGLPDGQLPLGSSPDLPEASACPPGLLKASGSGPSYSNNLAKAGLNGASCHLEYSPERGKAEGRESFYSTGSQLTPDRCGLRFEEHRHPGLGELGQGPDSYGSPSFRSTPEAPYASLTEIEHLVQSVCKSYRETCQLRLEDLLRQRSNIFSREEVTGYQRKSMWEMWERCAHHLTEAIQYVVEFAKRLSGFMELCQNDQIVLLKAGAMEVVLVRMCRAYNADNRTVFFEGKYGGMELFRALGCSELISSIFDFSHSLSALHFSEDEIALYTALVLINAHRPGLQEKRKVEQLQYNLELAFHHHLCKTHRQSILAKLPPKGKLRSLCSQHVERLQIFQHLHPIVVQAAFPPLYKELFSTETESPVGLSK
# [1] = target: T2, RORγ ligand binding domain (LBD) (Homo sapiens, UniProt P51449); assay: TR-FRET Activity Assay (ligand sensing assay, RORγ-LBD / coactivator peptide interaction); format: biochemical
# T2 construct: made in house; host or cells: E. coli BL-21 (BL3), vector pDEST15
# T2 sequence (P51449 269-508 limits assumed): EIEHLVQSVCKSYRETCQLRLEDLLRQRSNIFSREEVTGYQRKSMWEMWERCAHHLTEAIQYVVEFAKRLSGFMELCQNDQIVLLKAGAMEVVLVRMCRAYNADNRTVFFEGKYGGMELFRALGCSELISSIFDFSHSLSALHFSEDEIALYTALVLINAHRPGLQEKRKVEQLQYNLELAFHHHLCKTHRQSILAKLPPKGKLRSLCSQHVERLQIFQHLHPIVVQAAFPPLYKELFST
# Outline: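 GST-RORγ LBD expressed in bacteria, 20–60 ng/well, with biotinylated coactivator peptide 200–600 nM, streptavidin-APC and Eu-anti-GST. Buffer: 20 mM Tris-HCl pH 6.8, 60 mM KCl, 1 mM DTT, 5 mM MgCl2, BSA; 1% DMSO. LANCE TR-FRET 665/615 nm ratio; IC50 from four-parameter logistic fit.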
SMILES,pIC50 (FF) (RORγ),pIC50 (REN) (RORγ),IC50 [1] [nM]
"Cc1c(C(=O)NCCC(C)(C)C(=O)O)c(C#N)n(-c2ccc(S(=O)(=O)NC(C)(C)C)c(C(F)(F)F)c2)c1CC1CCCCC1 [Example 10, 4-(1-(4-(N-(tert-Butyl)sulfamoyl)-3-(trifluoromethyl)phenyl)-2-cyano-5-(cyclohexylmethyl)-4-methyl-1H-pyrrole-3-carboxamido)-2,2-dimethylbutanoic acid]",6.9,6.9,1580
"CC(C)(C)c1cc(-c2[nH]c(C(=O)NC3CCOCC3)cc2CC2CCCCC2)cc(C2(C)CC2)c1 [Example 12, 5-(3-(tert-Butyl)-5-(1-methylcyclopropyl)phenyl)-4-(cyclohexylmethyl)-N-(tetrahydro-2H-pyran-4-yl)-1H-pyrrole-2-carboxamide]",6.9,6.8,1000
CC(C)(C)c1cc(-c2[nH]c(C(=O)N[C@H]3C[C@H](C(=O)O)C3)cc2CC2CCCCC2)cc(C2(C)CC2)c1 [Example 12/2],6.6,6.6,1260
"Cc1c(C(=O)NC2CCOCC2)cn(-c2cc(C(C)(C)C)cc(C3(C)CC3)c2)c1C(=O)N1CCCCC1 [Example 13, 1-(3-(tert-Butyl)-5-(1-methylcyclopropyl)phenyl)-4-methyl-5-(piperidine-1-carbonyl)-N-(tetrahydro-2H-pyran-4-yl)-1H-pyrrole-3-carboxamide]",7.1,7.1,1000
Cc1c(C(=O)N[C@H]2C[C@H](C(=O)O)C2)cn(-c2cc(C(C)(C)C)cc(C3(C)CC3)c2)c1C(=O)N1CCCCC1 [Example 13/1],6.7,6.8,1000
"COC(c1c(C)c(C(=O)NC2CCOCC2)cn1-c1cc(C(C)(C)C)cc(C2(C)CC2)c1)C1CCCCC1 (stereo not drawn) [Example 14, 1-(3-(tert-Butyl)-5-(1-methylcyclopropyl)phenyl)-5-(cyclohexyl(methoxy)methyl)-4-methyl-N-(tetrahydro-2H-pyran-4-yl)-1H-pyrrole-3-carboxamide]",6.1,6.3,2000
COC(c1c(C)c(C(=O)N[C@H]2C[C@H](C(=O)O)C2)cn1-c1cc(C(C)(C)C)cc(C2(C)CC2)c1)C1CCCCC1 (stereo partly drawn) [Example 14/1],6.6,6.6,1580
"Cc1c(C(=O)NC2CCOCC2)cn(-c2cc(C(C)(C)C)cc(C3(C)CC3)c2)c1C(O)C1CCCCC1 (stereo not drawn) [Example 15, 1-(3-(tert-Butyl)-5-(1-methylcyclopropyl)phenyl)-5-(cyclohexyl(hydroxy)methyl)-4-methyl-N-(tetrahydro-2H-pyran-4-yl)-1H-pyrrole-3-carboxamide]",7.0,7.0,631
"Cc1c(C(=O)N[C@H]2C[C@H](C(=O)O)C2)c(C)n(-c2cc(C(C)(C)O)cc(C3(C)CC3)c2)c1CC1CCCCC1 [Example 16, trans-3-(5-(Cyclohexylmethyl)-1-(3-(2-hydroxypropan-2-yl)-5-(1-methylcyclopropyl)phenyl)-2,4-dimethyl-1H-pyrrole-3-carboxamido)cyclobutanecarboxylic acid]",6.6,6.7,1580
"CC(C)(O)c1cc(-c2cc(C(=O)N[C@H]3C[C@H](C(=O)O)C3)[nH]c2CC2CCCCC2)cc(C2(C)CC2)c1 [Example 17, trans-3-(5-(Cyclohexylmethyl)-4-(3-(2-hydroxypropan-2-yl)-5-(1-methylcyclopropyl)phenyl)-1H-pyrrole-2-carboxamido)cyclobutanecarboxylic acid]",6.4,6.3,1260
CC(C)(C)c1cc(-c2cc(C(=O)N[C@H]3C[C@H](C(=O)O)C3)[nH]c2CC2CCCCC2)cc(C2(C)CC2)c1 [Example 17/1],7.0,7.1,794
"CC(C)(C)c1cc(-c2[nH]c(C(=O)N[C@H]3C[C@H](C(=O)O)C3)c(Cl)c2CC2CCCCC2)cc(C2(C)CC2)c1 [Example 18, trans-3-(5-(3-(tert-Butyl)-5-(1-methylcyclopropyl)phenyl)-3-chloro-4-(cyclohexylmethyl)-1H-pyrrole-2-carboxamido)cyclobutanecarboxylic acid]",6.6,6.5,1260
Cn1c(C(=O)N[C@H]2C[C@H](C(=O)O)C2)c(Cl)c(CC2CCCCC2)c1-c1cc(C(C)(C)C)cc(C2(C)CC2)c1 [Example 18/1],6.6,6.7,794
Cn1c(C(=O)N[C@H]2C[C@H](C(=O)O)C2)cc(CC2CCCCC2)c1-c1cc(C(C)(C)C)cc(C2(C)CC2)c1 [Example 19/1],7.2,7.2,794
"Cn1c(CC2CCCCC2)c(-c2cc(C(C)(C)C)cc(C3(C)CC3)c2)c(Cl)c1C(=O)N[C@H]1C[C@H](C(=O)O)C1 [Example 20, trans-3-(4-(3-(tert-Butyl)-5-(1-methylcyclopropyl)phenyl)-3-chloro-5-(cyclohexylmethyl)-1-methyl-1H-pyrrole-2-carboxamido)cyclobutanecarboxylic acid]",7.2,7.3,3980
"Cc1c(C(=O)N[C@H]2C[C@H](C(=O)O)C2)cn(-c2cc(C(C)(C)C)cc(C3(C)CC3)c2)c1SC1CCCCC1 [Example 21, trans-3-(1-(3-(tert-Butyl)-5-(1-methylcyclopropyl)phenyl)-5-(cyclohexylthio)-4-methyl-1H-pyrrole-3-carboxamido)cyclobutanecarboxylic acid]",8.0,8.2,794
"Cc1c(C(=O)N[C@H]2C[C@H](C(=O)O)C2)cn(-c2cc(C(C)(C)C)cc(C3(C)CC3)c2)c1[S+]([O-])C1CCCCC1 (stereo partly drawn) [Example 22, trans-3-(1-(3-(tert-Butyl)-5-(1-methylcyclopropyl)phenyl)-5-(cyclohexylsulfinyl)-4-methyl-1H-pyrrole-3-carboxamido)cyclobutanecarboxylic acid]",7.1,7.1,2000
"Cc1c(C(=O)N[C@H]2C[C@H](C(=O)O)C2)cn(-c2cc(C(C)(C)C)cc(C3(C)CC3)c2)c1S(=O)(=O)C1CCCCC1 [Example 23, trans-3-(1-(3-(tert-Butyl)-5-(1-methylcyclopropyl)phenyl)-5-(cyclohexylsulfonyl)-4-methyl-1H-pyrrole-3-carboxamido)cyclobutanecarboxylic acid]",6.4,6.5,1580
"Cc1c(C(=O)NCCC(C)(C)C(=O)O)c(F)n(-c2ccc(S(=O)(=O)NC(C)(C)C)c(C(F)(F)F)c2)c1CC1CCCCC1 [Example 25, 4-(1-(4-(N-(tert-Butyl)sulfamoyl)-3-(trifluoromethyl)phenyl)-5-(cyclohexylmethyl)-2-fluoro-4-methyl-1H-pyrrole-3-carboxamido)-2,2-dimethylbutanoic acid]",8.3,8.3,631
